Results as given in the supplement of paper PMC10307832.

Tests used:
Assay in all cases: relative viability (nuclei count vs DMSO), 5 days (fraction); higher = more cells survive
RERF-LC-KJ = test system: RERF-LC-KJ
Outline: (§1)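 Values are medians from duplicate plates. Each reflects relative viability, defined as the nuclei count of treated wells over that of vehicle wells. Lung cancer cell lines in 1536-well plates were pin-tool dosed one day after seeding with one drug alone or with a fixed anchor-drug dose plus five library-drug doses (not always all listed) in √10 steps, then fixed, stained and imaged at 4× after 5 days.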

CAL-12T = test system: CAL-12T
Outline: as §1

NCI-H1650 = test system: NCI-H1650
Outline: as §1

ABC-1 = test system: ABC-1
Outline: as §1

PC-3 [JPC-3] = test system: PC-3 [JPC-3]
Outline: as §1

NCI-H1563 = test system: NCI-H1563
Outline: as §1

NCI-H520 = test system: NCI-H520
Outline: as §1

NCI-H2405 = test system: NCI-H2405
Outline: as §1

NCI-H2228 = test system: NCI-H2228
Outline: as §1

NCI-H322M = test system: NCI-H322M
Outline: as §1

HCC-15 = test system: HCC-15
Outline: as §1

NCI-H661 = test system: NCI-H661
Outline: as §1

SW 1573 = test system: SW 1573
Outline: as §1

EKVX = test system: EKVX
Outline: as §1

COR-L23 = test system: COR-L23
Outline: as §1

NCI-H1734 = test system: NCI-H1734
Outline: as §1

HCC-827 = test system: HCC-827
Outline: as §1

PC-14 = test system: PC-14
Outline: as §1

NCI-H1437 = test system: NCI-H1437
Outline: as §1

H3255 = test system: H3255
Outline: as §1

NCI-H2342 = test system: NCI-H2342
Outline: as §1

LK-2 = test system: LK-2
Outline: as §1

NCI-H1355 = test system: NCI-H1355
Outline: as §1

SMILES: CC1(C)CCC(c2ccc(Cl)cc2)=C(CN2CCN(c3ccc(C(=O)NS(=O)(=O)c4ccc(N[C@H](CCN5CCOCC5)CSc5ccccc5)c(S(=O)(=O)C(F)(F)F)c4)cc3)CC2)C1 [Navitoclax] + COc1cccc2cc(-c3nc([C@H]4CC[C@H](C(=O)O)CC4)n4ncnc(N)c34)[nH]c12 [OSI-027] (partner 0.5 µM)
- relative viability (RERF-LC-KJ; first compound 0.005 µM): 0.568
- relative viability (RERF-LC-KJ; first compound 0.01581 µM): 0.633
- relative viability (RERF-LC-KJ; first compound 0.05 µM): 0.498
- relative viability (RERF-LC-KJ; first compound 0.1581 µM): 0.599
- relative viability (RERF-LC-KJ; first compound 0.5 µM): 0.616
- relative viability (CAL-12T; first compound 0.005 µM): 0.649
- relative viability (CAL-12T; first compound 0.01581 µM): 0.676
- relative viability (CAL-12T; first compound 0.05 µM): 0.557
- relative viability (CAL-12T; first compound 0.1581 µM): 0.677
- relative viability (CAL-12T; first compound 0.5 µM): 0.629
- relative viability (NCI-H1650; first compound 0.005 µM): 0.601
- relative viability (NCI-H1650; first compound 0.01581 µM): 1
- relative viability (NCI-H1650; first compound 0.05 µM): 0.698
- relative viability (NCI-H1650; first compound 0.1581 µM): 0.526
- relative viability (NCI-H1650; first compound 0.5 µM): 0.445
- relative viability (ABC-1; first compound 0.005 µM): 0.506
- relative viability (ABC-1; first compound 0.01581 µM): 0.637
- relative viability (ABC-1; first compound 0.05 µM): 0.397
- relative viability (ABC-1; first compound 0.1581 µM): 0.572
- relative viability (ABC-1; first compound 0.5 µM): 0.356
- relative viability (PC-3 [JPC-3]; first compound 0.005 µM): 0.844
- relative viability (PC-3 [JPC-3]; first compound 0.01581 µM): 0.764
- relative viability (PC-3 [JPC-3]; first compound 0.05 µM): 0.768
- relative viability (PC-3 [JPC-3]; first compound 0.1581 µM): 0.809
- relative viability (PC-3 [JPC-3]; first compound 0.5 µM): 0.703
- relative viability (NCI-H1563; first compound 0.005 µM): 0.737
- relative viability (NCI-H1563; first compound 0.01581 µM): 0.809
- relative viability (NCI-H1563; first compound 0.05 µM): 0.756
- relative viability (NCI-H1563; first compound 0.1581 µM): 0.824
- relative viability (NCI-H1563; first compound 0.5 µM): 0.812
- relative viability (NCI-H520; first compound 0.01581 µM): 0.231
- relative viability (NCI-H520; first compound 0.05 µM): 0.318
- relative viability (NCI-H520; first compound 0.1581 µM): 0.201
- relative viability (NCI-H520; first compound 0.5 µM): 0.31
- relative viability (NCI-H2405; first compound 0.005 µM): 0.664
- relative viability (NCI-H2405; first compound 0.01581 µM): 0.682
- relative viability (NCI-H2405; first compound 0.05 µM): 0.644
- relative viability (NCI-H2405; first compound 0.1581 µM): 0.632
- relative viability (NCI-H2405; first compound 0.5 µM): 0.558
- relative viability (NCI-H2228; first compound 0.005 µM): 0.586
- relative viability (NCI-H2228; first compound 0.01581 µM): 0.726
- relative viability (NCI-H2228; first compound 0.1581 µM): 0.53
- relative viability (NCI-H2228; first compound 0.5 µM): 0.5
- relative viability (NCI-H322M; first compound 0.005 µM): 0.536
- relative viability (NCI-H322M; first compound 0.01581 µM): 0.696
- relative viability (NCI-H322M; first compound 0.05 µM): 0.552
- relative viability (NCI-H322M; first compound 0.1581 µM): 0.545
- relative viability (NCI-H322M; first compound 0.5 µM): 0.706
- relative viability (HCC-15; first compound 0.005 µM): 0.695
- relative viability (HCC-15; first compound 0.01581 µM): 0.746
- relative viability (HCC-15; first compound 0.05 µM): 0.573
- relative viability (HCC-15; first compound 0.1581 µM): 0.699
- relative viability (HCC-15; first compound 0.5 µM): 0.624
- relative viability (NCI-H661; first compound 0.005 µM): 0.734
- relative viability (NCI-H661; first compound 0.01581 µM): 0.775
- relative viability (NCI-H661; first compound 0.05 µM): 0.793
- relative viability (NCI-H661; first compound 0.1581 µM): 0.687
- relative viability (NCI-H661; first compound 0.5 µM): 0.716
- relative viability (SW 1573; first compound 0.005 µM): 0.762
- relative viability (SW 1573; first compound 0.01581 µM): 0.782
- relative viability (SW 1573; first compound 0.05 µM): 0.638
- relative viability (SW 1573; first compound 0.1581 µM): 0.562
- relative viability (SW 1573; first compound 0.5 µM): 0.576
- relative viability (EKVX; first compound 0.005 µM): 0.684
- relative viability (EKVX; first compound 0.01581 µM): 0.882
- relative viability (EKVX; first compound 0.05 µM): 0.651
- relative viability (EKVX; first compound 0.1581 µM): 0.686
- relative viability (EKVX; first compound 0.5 µM): 0.737
- relative viability (COR-L23; first compound 0.005 µM): 0.839
- relative viability (COR-L23; first compound 0.01581 µM): 0.814
- relative viability (COR-L23; first compound 0.05 µM): 0.877
- relative viability (COR-L23; first compound 0.1581 µM): 0.785
- relative viability (COR-L23; first compound 0.5 µM): 0.779
- relative viability (NCI-H1734; first compound 0.005 µM): 0.617
- relative viability (NCI-H1734; first compound 0.01581 µM): 0.822
- relative viability (NCI-H1734; first compound 0.1581 µM): 0.53
- relative viability (NCI-H1734; first compound 0.5 µM): 0.622
- relative viability (HCC-827; first compound 0.005 µM): 0.767
- relative viability (HCC-827; first compound 0.01581 µM): 0.951
- relative viability (HCC-827; first compound 0.05 µM): 0.74
- relative viability (HCC-827; first compound 0.1581 µM): 0.761
- relative viability (HCC-827; first compound 0.5 µM): 0.812
- relative viability (PC-14; first compound 0.005 µM): 0.735
- relative viability (PC-14; first compound 0.01581 µM): 1.12
- relative viability (PC-14; first compound 0.05 µM): 0.767
- relative viability (PC-14; first compound 0.1581 µM): 0.842
- relative viability (PC-14; first compound 0.5 µM): 0.748
- relative viability (NCI-H1437; first compound 0.005 µM): 0.845
- relative viability (NCI-H1437; first compound 0.01581 µM): 0.974
- relative viability (NCI-H1437; first compound 0.05 µM): 0.932
- relative viability (NCI-H1437; first compound 0.1581 µM): 0.856
- relative viability (NCI-H1437; first compound 0.5 µM): 0.83
- relative viability (H3255; first compound 0.005 µM): 0.629
- relative viability (H3255; first compound 0.01581 µM): 0.643
- relative viability (H3255; first compound 0.05 µM): 0.568
- relative viability (H3255; first compound 0.1581 µM): 0.67
- relative viability (H3255; first compound 0.5 µM): 0.611
- relative viability (NCI-H2342; first compound 0.005 µM): 0.579
- relative viability (NCI-H2342; first compound 0.01581 µM): 0.632
- relative viability (NCI-H2342; first compound 0.05 µM): 0.628
- relative viability (NCI-H2342; first compound 0.1581 µM): 0.603
- relative viability (NCI-H2342; first compound 0.5 µM): 0.525
- relative viability (LK-2; first compound 0.005 µM): 0.204
- relative viability (LK-2; first compound 0.01581 µM): 0.256
- relative viability (LK-2; first compound 0.05 µM): 0.182
- relative viability (LK-2; first compound 0.1581 µM): 0.174
- relative viability (LK-2; first compound 0.5 µM): 0.193
- relative viability (NCI-H1355; first compound 0.005 µM): 0.447
- relative viability (NCI-H1355; first compound 0.01581 µM): 0.469
- relative viability (NCI-H1355; first compound 0.05 µM): 0.425
- relative viability (NCI-H1355; first compound 0.1581 µM): 0.397
- relative viability (NCI-H1355; first compound 0.5 µM): 0.431
